Measured values from ChEMBL document CHEMBL1201862, “PubChem BioAssay data set” (2004).
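48-hour exposure; five concentrations; linearly interpolated endpoints. The concentration for 50% growth inhibition is given as GI50.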 Activity calls are given as the source filed them. No stated cut-off is given here; in the data, active = GI50 up to about 1.1 µM and inactive = higher.

Key:
Test in all cases: NCI anticancer screen, dose series, 48 h
RXF 393 = tested on: RXF 393
UACC-62 = tested on: UACC-62
BT-549 = tested on: BT-549
HCT-15 = tested on: HCT-15
Hs-578T = tested on: Hs-578T
PC-3 = tested on: PC-3
COLO 205 = tested on: COLO 205
MDA-MB-435 = tested on: MDA-MB-435
T47D = tested on: T47D
OVCAR-3 = tested on: OVCAR-3
DU-145 = tested on: DU-145
OVCAR-4 = tested on: OVCAR-4
SF-295 = tested on: SF-295
LOX IMVI = tested on: LOX IMVI
MOLT-4 = tested on: MOLT-4
EKVX = tested on: EKVX
SK-MEL-28 = tested on: SK-MEL-28
NCI-H23 = tested on: NCI-H23
MDA-MB-231 = tested on: MDA-MB-231
CCRF-CEM = tested on: CCRF-CEM

Row | SMILES | GI50 (RXF 393) | GI50 (UACC-62) | GI50 (BT-549) | GI50 (HCT-15) [µM] | GI50 (Hs-578T) | GI50 (PC-3) | GI50 (COLO 205) | GI50 (MDA-MB-435) | GI50 (T47D) | GI50 (OVCAR-3) | GI50 (DU-145) | GI50 (OVCAR-4) | GI50 (SF-295) | GI50 (LOX IMVI) | GI50 (MOLT-4) | GI50 (EKVX) | GI50 (SK-MEL-28) | GI50 (NCI-H23) | GI50 (MDA-MB-231) | GI50 (CCRF-CEM)
1 | CN(Cc1cc(Cl)cc(Cl)c1O)Cc1c(O)ccc2ccccc12 | 13.5 µM (inactive) | 15.5 µM (inactive) | 17 µM (inactive) | 17.6 | 19.1 µM (inactive) | 16.6 µM (inactive) | 16.9 µM (inactive) | 19.1 µM (inactive) | 19.2 µM (inactive) | 16.6 µM (inactive) | 22.3 µM (inactive) | 17.1 µM (inactive) | 17.2 µM (inactive) | 16.7 µM (inactive) | 20.9 µM (inactive) | 20 µM (inactive) | 19.1 µM (inactive) | 18.4 µM (inactive) | 16.9 µM (inactive) | –
2 | CC1CN=C(NCc2ccccc2)S1 (configuration not stated) | 4.17 µM (inactive) | > 100 µM (inactive) | > 100 µM (inactive) | > 100 | > 100 µM (inactive) | – | – | 39.1 µM (inactive) | > 100 µM (inactive) | > 100 µM (inactive) | > 100 µM (inactive) | – | – | > 100 µM (inactive) | > 100 µM (inactive) | > 100 µM (inactive) | > 100 µM (inactive) | > 100 µM (inactive) | > 100 µM (inactive) | > 100 µM (inactive)
3 | NC(Cc1c[nH]c2ccccc12)P(=O)(O)O (configuration not stated) | > 100 µM (inactive) | > 100 µM (inactive) | > 100 µM (inactive) | > 100 | > 100 µM (inactive) | > 100 µM (inactive) | > 100 µM (inactive) | > 100 µM (inactive) | > 100 µM (inactive) | > 100 µM (inactive) | > 100 µM (inactive) | > 100 µM (inactive) | > 100 µM (inactive) | – | > 100 µM (inactive) | > 100 µM (inactive) | > 100 µM (inactive) | > 100 µM (inactive) | > 100 µM (inactive) | > 100 µM (inactive)
4 | CN(C)S(=O)(=O)Nc1nnc(S(N)(=O)=O)s1 | > 100 µM (inactive) | > 100 µM (inactive) | > 100 µM (inactive) | > 100 | > 100 µM (inactive) | > 100 µM (inactive) | > 100 µM (inactive) | > 100 µM (inactive) | 64.3 µM (inactive) | > 100 µM (inactive) | > 100 µM (inactive) | > 100 µM (inactive) | > 100 µM (inactive) | – | > 100 µM (inactive) | > 100 µM (inactive) | > 100 µM (inactive) | > 100 µM (inactive) | > 100 µM (inactive) | –
5 | CCCCOc1ccc(/C=C/C2=[N+](CCO)CCO2)cc1 | 17.9 µM (inactive) | > 100 µM (inactive) | > 100 µM (inactive) | 51.9 | > 100 µM (inactive) | 68.4 µM (inactive) | 24.7 µM (inactive) | > 100 µM (inactive) | 30.5 µM (inactive) | 61.5 µM (inactive) | > 100 µM (inactive) | > 100 µM (inactive) | 48.5 µM (inactive) | – | 53 µM (inactive) | > 100 µM (inactive) | > 100 µM (inactive) | > 100 µM (inactive) | 61.9 µM (inactive) | 30.4 µM (inactive)
6 | O=C1NC(N/N=C/c2ccccc2)=N/C1=C\c1ccco1 | 25.1 µM (inactive) | 28.7 µM (inactive) | 23.7 µM (inactive) | 40.6 | 31.5 µM (inactive) | 33.9 µM (inactive) | 57.4 µM (inactive) | 51.9 µM (inactive) | 26.9 µM (inactive) | 33.8 µM (inactive) | 32.9 µM (inactive) | 38.5 µM (inactive) | 33.1 µM (inactive) | – | 37.1 µM (inactive) | 36.7 µM (inactive) | 51.8 µM (inactive) | 26.4 µM (inactive) | 65.2 µM (inactive) | 25.6 µM (inactive)
7 | C#CCOC(=O)C(N)C(C)O (configuration not stated) | > 100 µM (inactive) | > 100 µM (inactive) | > 100 µM (inactive) | – | > 100 µM (inactive) | > 100 µM (inactive) | > 100 µM (inactive) | > 100 µM (inactive) | > 100 µM (inactive) | > 100 µM (inactive) | > 100 µM (inactive) | – | > 100 µM (inactive) | > 100 µM (inactive) | > 100 µM (inactive) | > 100 µM (inactive) | > 100 µM (inactive) | > 100 µM (inactive) | > 100 µM (inactive) | > 100 µM (inactive)
8 | [O-][S+](Nc1ccccc1)c1ccc(-c2ccccc2)cc1 (configuration not stated) | – | 47.4 µM (inactive) | 8.57 µM (inactive) | > 100 | > 100 µM (inactive) | – | 72.3 µM (inactive) | > 100 µM (inactive) | 11.5 µM (inactive) | > 100 µM (inactive) | > 100 µM (inactive) | 38.1 µM (inactive) | 55.8 µM (inactive) | 28.5 µM (inactive) | > 100 µM (inactive) | > 100 µM (inactive) | > 100 µM (inactive) | > 100 µM (inactive) | > 100 µM (inactive) | > 100 µM (inactive)
9 | COc1ccc(S(=O)(=O)n2c3c(c4ccccc42)[C@@H]2[C@@H](CCCN2C(=O)C[S+]([O-])c2ccc(C)cc2)[C@H](Cl)C3)cc1 (some centres not stated) | > 100 µM (inactive) | > 100 µM (inactive) | 5.83 µM (inactive) | > 100 | > 100 µM (inactive) | > 100 µM (inactive) | > 100 µM (inactive) | > 100 µM (inactive) | > 100 µM (inactive) | > 100 µM (inactive) | > 100 µM (inactive) | – | > 100 µM (inactive) | > 100 µM (inactive) | > 100 µM (inactive) | > 100 µM (inactive) | > 100 µM (inactive) | > 100 µM (inactive) | > 100 µM (inactive) | > 100 µM (inactive)
10 | COc1cc2c(cc1OC)CC(N=[N+]=[N-])c1cc(OC)c(OC)cc1/C=C\2 (configuration not stated) | – | 30 µM (inactive) | 0.826 µM (active) | 40.1 | 24 µM (inactive) | 30.8 µM (inactive) | 37.4 µM (inactive) | 10.8 µM (inactive) | 75 µM (inactive) | 53.7 µM (inactive) | > 100 µM (inactive) | 99.3 µM (inactive) | 31.8 µM (inactive) | 40.6 µM (inactive) | 41 µM (inactive) | 43.2 µM (inactive) | 89.1 µM (inactive) | – | 30.8 µM (inactive) | –
11 | Cc1ccc2nc(Cl)c(/C=N/N3C(=O)/C(=C/c4ccc(N(C)C)cc4)N=C3c3ccccc3)cc2c1 | – | 43.4 µM (inactive) | > 100 µM (inactive) | 55.2 | 40.1 µM (inactive) | 47.6 µM (inactive) | 51.1 µM (inactive) | 22.1 µM (inactive) | 43.4 µM (inactive) | 13.9 µM (inactive) | 80 µM (inactive) | 70 µM (inactive) | 29.9 µM (inactive) | 31.5 µM (inactive) | 24.4 µM (inactive) | 80.9 µM (inactive) | > 100 µM (inactive) | – | 38.9 µM (inactive) | 29.9 µM (inactive)
12 | O=C(CC(=O)N(C(=O)c1ccccc1)c1ccc(Cl)cc1)N/N=C\c1cc(/N=N/c2ccccc2Cl)ccc1O | 29.8 µM (inactive) | 70.5 µM (inactive) | > 100 µM (inactive) | 75.7 | 20 µM (inactive) | > 100 µM (inactive) | > 100 µM (inactive) | > 100 µM (inactive) | 51.6 µM (inactive) | 48 µM (inactive) | > 100 µM (inactive) | – | 29.9 µM (inactive) | > 100 µM (inactive) | 18.7 µM (inactive) | 90.2 µM (inactive) | > 100 µM (inactive) | > 100 µM (inactive) | 29.2 µM (inactive) | 25.1 µM (inactive)
13 | CC(C)(C)C(=O)C(N)C(=O)C(C)(C)C | > 100 µM (inactive) | > 100 µM (inactive) | > 100 µM (inactive) | > 100 | > 100 µM (inactive) | > 100 µM (inactive) | > 100 µM (inactive) | > 100 µM (inactive) | > 100 µM (inactive) | – | > 100 µM (inactive) | > 100 µM (inactive) | > 100 µM (inactive) | > 100 µM (inactive) | 9.57 µM (inactive) | – | > 100 µM (inactive) | – | > 100 µM (inactive) | > 100 µM (inactive)
14 | Nc1cc(N)c(/N=N/c2cccc3c(S(=O)(=O)O)cccc23)cc1/N=N/c1cc([N+](=O)[O-])ccc1O | 70.3 µM (inactive) | 22.3 µM (inactive) | 31.6 µM (inactive) | 22.1 | 36.8 µM (inactive) | 18.5 µM (inactive) | 38.5 µM (inactive) | 35.6 µM (inactive) | 38.8 µM (inactive) | 9.08 µM (inactive) | 30.3 µM (inactive) | 18.4 µM (inactive) | 32.2 µM (inactive) | 13.6 µM (inactive) | 20.3 µM (inactive) | > 100 µM (inactive) | – | 45 µM (inactive) | 14.6 µM (inactive) | –
15 | C[C@H](N)C(=O)N[C@@H]1[C@H]2C(=C(O)C[C@@H](O)[C@@H]2O)C(=O)O[C@]1(C)C(Cl)Cl [BACTOBOLIN] | 0.17 µM (active) | 0.23 µM (active) | 0.165 µM (active) | 0.597 | 0.125 µM (active) | 0.232 µM (active) | 0.105 µM (active) | 0.248 µM (active) | 0.209 µM (active) | 0.34 µM (active) | 0.182 µM (active) | 0.133 µM (active) | 0.18 µM (active) | 0.0946 µM (active) | – | 0.207 µM (active) | 0.234 µM (active) | 0.183 µM (active) | 0.156 µM (active) | –
